# Source: PubChem BioAssay (NCI)
#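 Protocol summary: plate cells (96-well), add compound at 5 concentrations, incubate 48 h, interpolate endpoints linearly. Here, GI50 denotes the concentration required for 50% inhibition of growth. TGI denotes the concentration required for complete inhibition of growth.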
# Tests used:
# Assay in all cases: NCI anticancer screen, dose series, 48 h
# [1] = system: 786-0 renal
# [2] = system: A549 NSCLC
# [3] = system: ACHN renal
# [4] = system: BT-549 breast
# [5] = system: CAKI-1 renal
# [6] = system: COLO 205 colon
# [7] = system: DU-145 prostate
# [8] = system: EKVX NSCLC
# [9] = system: HCC-2998 colon
# [10] = system: HCT-15 colon
# [11] = system: HL-60(TB) leukemia
# [12] = system: HOP-62 NSCLC
# [13] = system: HOP-92 NSCLC
# [14] = system: HS 578T breast
# [15] = system: HT29 colon
# [16] = system: IGROV1 ovarian
# [17] = system: KM12 colon
# [18] = system: LOX IMVI melanoma
# [19] = system: MALME-3M melanoma
# [20] = system: MCF7 breast
# [21] = system: MDA-MB-231 breast
# [22] = system: MDA-MB-435
# [23] = system: NCI-H226 lung
# [24] = system: NCI-H460 lung
# [25] = system: NCI-H522 lung
# [26] = system: NCI/ADR-RES ovarian
# [27] = system: OVCAR-3 ovarian
# [28] = system: OVCAR-4 ovarian
# [29] = system: OVCAR-5 ovarian
# [30] = system: OVCAR-8 ovarian
# [31] = system: PC-3 prostate
# [32] = system: RPMI-8226 leukemia
# [33] = system: RXF 393 renal
# [34] = system: SF-268 CNS
# [35] = system: SF-295 CNS
# [36] = system: SF-539 CNS
# [37] = system: SK-MEL-2 melanoma
# [38] = system: SK-MEL-28 melanoma
# [39] = system: SK-MEL-5 melanoma
# [40] = system: SK-OV-3 ovarian
# [41] = system: SN12C renal
# [42] = system: SNB-19 CNS
# [43] = system: SNB-75 CNS
# [44] = system: SR leukemia
# [45] = system: SW-620 colon
# [46] = system: T-47D breast
# [47] = system: TK-10 renal
# [48] = system: U251 CNS
# [49] = system: UACC-257 melanoma
# [50] = system: UACC-62 melanoma
# [51] = system: UO-31 renal
smiles,measurement,setting,value
CCCCn1c(=O)c(/C=C/C(=O)/C=C/c2cc3ccccc3n(CCCC)c2=O)cc2ccccc21,GI50,[1],1.35 µM
same,TGI,[1],3.08 µM
same,GI50,[2],1.56 µM
same,TGI,[2],3.17 µM
same,GI50,[3],1.7 µM
same,TGI,[3],3.07 µM
same,GI50,[4],0.702 µM
same,TGI,[4],2.2 µM
same,GI50,[5],1.87 µM
same,TGI,[5],3.27 µM
same,GI50,[6],1.41 µM
same,TGI,[6],3.16 µM
same,GI50,[7],1.47 µM
same,TGI,[7],2.78 µM
same,GI50,[8],1.88 µM
same,TGI,[8],4.42 µM
same,GI50,[9],1.01 µM
same,TGI,[9],2.26 µM
same,GI50,[10],1.29 µM
same,TGI,[10],2.87 µM
same,GI50,[11],1.71 µM
same,TGI,[11],6.63 µM
same,GI50,[12],2.27 µM
same,TGI,[12],4.08 µM
same,GI50,[13],1.96 µM
same,TGI,[13],4.12 µM
same,GI50,[14],3.01 µM
same,TGI,[14],23.7 µM
same,GI50,[15],0.316 µM
same,TGI,[15],0.922 µM
same,GI50,[16],1.46 µM
same,TGI,[16],3.42 µM
same,GI50,[17],0.678 µM
same,TGI,[17],2.2 µM
same,GI50,[18],1.24 µM
same,TGI,[18],2.7 µM
same,GI50,[19],2.29 µM
same,TGI,[19],5.33 µM
same,GI50,[20],0.306 µM
same,TGI,[20],1.84 µM
same,GI50,[21],1.84 µM
same,TGI,[21],3.37 µM
same,GI50,[22],0.206 µM
same,TGI,[22],0.478 µM
same,GI50,[23],2.51 µM
same,TGI,[23],6 µM
same,GI50,[24],1.8 µM
same,TGI,[24],3.49 µM
same,GI50,[25],1.86 µM
same,TGI,[25],4.07 µM
same,GI50,[26],3.01 µM
same,TGI,[26],13.5 µM
same,GI50,[27],1.21 µM
same,TGI,[27],2.47 µM
same,GI50,[28],2.78 µM
same,TGI,[28],9.12 µM
same,GI50,[29],1.96 µM
same,TGI,[29],3.76 µM
same,GI50,[30],1.5 µM
same,TGI,[30],4.12 µM
same,GI50,[31],1.79 µM
same,TGI,[31],3.86 µM
same,GI50,[32],0.317 µM
same,TGI,[32],0.931 µM
same,GI50,[33],1.8 µM
same,TGI,[33],3.32 µM
same,GI50,[34],1.98 µM
same,TGI,[34],5.17 µM
same,GI50,[35],1.84 µM
same,TGI,[35],4.24 µM
same,GI50,[36],1.47 µM
same,TGI,[36],3.57 µM
same,GI50,[37],2.09 µM
same,TGI,[37],5.7 µM
same,GI50,[38],1.81 µM
same,TGI,[38],3.48 µM
same,GI50,[39],1.77 µM
same,TGI,[39],3.28 µM
same,GI50,[40],3.59 µM
same,TGI,[40],9.35 µM
same,GI50,[41],2.21 µM
same,TGI,[41],5.2 µM
same,GI50,[42],1.63 µM
same,TGI,[42],3.24 µM
same,GI50,[43],2.8 µM
same,TGI,[43],8.12 µM
same,GI50,[44],0.315 µM
same,TGI,[44],> 100 µM
same,GI50,[45],0.859 µM
same,TGI,[45],2.84 µM
same,GI50,[46],2.28 µM
same,TGI,[46],6.33 µM
same,GI50,[47],1.78 µM
same,TGI,[47],3.21 µM
same,GI50,[48],1.03 µM
same,TGI,[48],2.24 µM
same,GI50,[49],1.61 µM
same,TGI,[49],3 µM
same,GI50,[50],1.61 µM
same,TGI,[50],3.06 µM
same,GI50,[51],1.53 µM
same,TGI,[51],3.21 µM
